From US20220073536A1 (Rigel Pharmaceuticals, Inc., priority 2003, published 2022)
Where a name gives a salt, the structure may show the parent alone. Read-outs that look alike come from different tables or passages of the source. Values belong to the molecule of their own block, whether it stands above or below them.

Test system: cultured human mast cells (CHMC)
Test: CHMC low cell density IgE activation: tryptase assay
Type: cell-based
Settings: IgE activation
How it was run: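 Tryptase release was read from supernatant with a fluorogenic substrate (30 min, room temperature) after anti-IgE challenge of cultured human mast cells (1000–1500 cells/well, low density) for 30 minutes at 37° C.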

[1] = low cell density, 3 pt, read-out: LD Tryptase, CHMC, IgE, 3 pt
[2] = Homo sapiens, Mast cell, low cell density, 3 pt, read-out: LD Tryptase, CHMC, IgE, 3 pt
[3] = Homo sapiens, Mast cell, low cell density, 8 pt, read-out: LD Tryptase, CHMC, IgE, 8 pt
[4] = low cell density CHMC, tryptase release, 3 point, read-out: LD Tryptase, CHMC, IgE, 3 pt
[5] = low cell density CHMC, tryptase release, 8 point, read-out: LD Tryptase, CHMC, IgE, 8 pt
[6] = Homo sapiens, Mast cell, low cell density CHMC, tryptase, 3 pt, read-out: LD Tryptase, CHMC, IgE, 3 pt

IC50 [2]: < 10 µM
SMILES: COC(=O)c1cc2cc(Nc3ncc(F)c(Nc4ccc(OC)c(N)n4)n3)ccc2o1 [Compound 546]

IC50 [1]: < 10 µM
SMILES: CNC(=O)COc1cccc(Nc2ncc(F)c(Nc3ccc(OC)c(N)n3)n2)c1 [Compound 547, N4-(2-Amino-3-methoxypyrid-6-yl)-5-fluoro-N2[3-(N-methylaminocarbonylmethyleneoxy)phenyl]-2,4-pyrimidinediamine]

IC50 [4]: < 10 µM
IC50 [5]: < 10 µM
SMILES: CNC(=O)COc1c(C)cc(Nc2ncc(F)c(Nc3ccc(OC)c(Cl)c3)n2)cc1C [Compound 571, N4-(3-Chloro-4-methoxyphenyl)-N2-[3,5-dimethyl-4-(N-methylamino)carbonylmethyleneoxyphenyl]-5-fluoro-2,4-pyrimidinediamine]

IC50 [4]: < 10 µM
IC50 [5]: < 10 µM
SMILES: CNC(=O)COc1c(C)cc(Nc2ncc(F)c(Nc3cc(OC)cc(OC)c3)n2)cc1C [Compound 573, N4-(3,5-Dimethoxyphenyl)-N2-[3,5-dimethyl-4-(N-methylamino)carbonylmethyleneoxyphenyl]-5-fluoro-2,4-pyrimidinediamine]

IC50 [4]: < 10 µM
IC50 [5]: < 10 µM
SMILES: CNC(=O)COc1c(C)cc(Nc2ncc(F)c(Nc3ccc4c(c3)OCO4)n2)cc1C [Compound 575, N2-[3,5-dimethyl-4-(N-methylamino)carbonylmethyleneoxyphenyl]-5-fluoro-N4-(3,4-methylenedioxyphenyl)-2,4-pyrimidinediamine]

IC50 [5]: < 10 µM
SMILES: CNC(=O)Cn1ccc2cc(Nc3ncc(F)c(Nc4ccc(OCCO)nc4)n3)ccc21 [Compound 650, 5-Fluoro-N4-[2-(2-hydroxyethyleneoxy)pyrid-5-yl]-N2-[1-(N-methylamino)carbonylmethyleneindol-5-yl]-2,4-pyrimidinediamine]

IC50 [5]: < 10 µM
SMILES: CNC(=O)Cn1ccc2cc(Nc3ncc(F)c(Nc4ccc(OC(F)(F)F)c(Cl)c4)n3)ccc21 [Compound 651, N4-(3-Chloro-4-trifluoromethoxyphenyl)-5-fluoro-N2-[1-(N-methylamino)carbonylmethyleneindol-5-yl]-2,4-pyrimidinediamine]

IC50 [5]: < 10 µM
SMILES: CNC(=O)Cn1ccc2cc(Nc3ncc(F)c(Nc4ccc(Cl)c(OC)c4)n3)ccc21 [Compound 653, N4-(4-Chloro-3-methoxyphenyl)-5-fluoro-N2-[1-(N-methylamino)carbonylmethyleneindol-5-yl]-2,4-pyrimidinediamine]

IC50 [5]: < 10 µM
SMILES: CNC(=O)Cn1ccc2cc(Nc3ncc(F)c(Nc4ccc(OC)c(Cl)c4)n3)ccc21 [Compound 654, N4-(3-Chloro-4-methoxyphenyl)-5-fluoro-N2-[1-(N-methylamino)carbonylmethyleneindol-5-yl]-2,4-pyrimidinediamine]

IC50 [5]: < 10 µM
SMILES: CNC(=O)Cn1ccc2cc(Nc3ncc(F)c(Nc4ccc5c(c4)OCCO5)n3)ccc21 [Compound 655, N4-(3,4-Ethylenedioxyphenyl)-5-fluoro-N2-[1-(N-methylamino)carbonylmethyleneindol-5-yl]-2,4-pyrimidinediamine]

IC50 [5]: < 10 µM
SMILES: CNC(=O)Cn1ccc2cc(Nc3ncc(F)c(Nc4ccc(C(=O)NC)c(Cl)c4)n3)ccc21 [Compound 656, N4-[3-Chloro-4-(N-methylamino)carbonylphenyl]-5-fluoro-N2-[1-(N-methylamino)carbonylmethyleneindol-5-yl]-2,4-pyrimidinediamine]

IC50 [6]: > 10 µM
SMILES: COc1ccc(Nc2nc(Nc3ccc(OC)c(OC)c3OC)ncc2F)cc1Cl [Compound 669, N4-(3-Chloro-4-methoxyphenyl)-5-fluoro-N2-(2,3,4-trimethoxyphenyl)-2,4-pyrimidinediamine]

The next lines start with the molecule.

SMILES: CC(C)(C)c1nnc(-c2cccc(Nc3ncc(F)c(Nc4ccc5c(c4)OCCO5)n3)c2)o1 [Compound 531, N2-[ (2-tert-Butyl-1,3,4-oxadiazol-5-yl)phenyl]-N4-(3,4-ethylenedioxyphenyl)-5-fluoro-2,4-pyrimidinediamine]
IC50 [1]: < 10 µM

SMILES: CC(C)(C)c1nnc(-c2cccc(Nc3ncc(F)c(Nc4cccc(O)c4)n3)c2)o1 [Compound 532, N2-[ (2-tert-Butyl-1,3,4-oxadiazol-5-yl)phenyl]-5-fluoro-N4-(3-hydroxyphenyl)-2,4-pyrimidinediamine]
IC50 [1]: < 10 µM

SMILES: CN(c1ccc2c(c1)OCCO2)c1nc(NN)ncc1F [Compound 533, N4-(3,4-Ethylenedioxyphenyl)-5-fluoro-N4-methyl-2-hydrazine-4-pyrimidineamine]
IC50 [1]: > 10 µM

SMILES: Cc1noc(C)c1Nc1nc(Nc2cccc(-c3ncco3)c2)ncc1F [Compound 534, N4-(3,5-Dimethylisoxazol-4-yl)-5-fluoro-N2-[3-(oxazol-2-yl)phenyl]-2,4-pyrimidinediamine]
IC50 [2]: < 10 µM

SMILES: COC(=O)c1cc(Nc2ncc(F)c(Nc3c(C)noc3C)n2)cc(-c2ncco2)c1 [Compound 535]
IC50 [2]: < 10 µM

SMILES: CC1(C)Oc2ccc(Nc3nc(Nc4ccc5nc(C(F)(F)F)[nH]c5c4)ncc3F)cc2NC1=O [Compound 539, N4-(2,2-Dimethyl-3-oxo-4H-benz[1,4]oxazin-6-yl)-5-fluoro-N2-(2-trifluoromethyl-3H-benzimidazol-5-yl)-2,4-pyrimidinediamine p-Toluenesulfonic Acid Salt]
IC50 [3]: < 10 µM

SMILES: COc1cc(Nc2ncc(F)c(Nc3ccc4c(c3)NC(=O)C(C)(C)O4)n2)cc(OC)c1OC [Compound 543]
IC50 [2]: < 10 µM
IC50 [3]: < 10 µM

SMILES: COc1cc(Nc2ncc(F)c(Nc3ccc(OC)c(N)n3)n2)cc(OC)c1 [Compound 544]
IC50 [2]: < 10 µM

SMILES: COc1ccc(Nc2nc(Nc3cc(OC)c(OC)c(OC)c3)ncc2F)nc1N [Compound 545]
IC50 [2]: < 10 µM

SMILES: COc1c(Cl)cc(Nc2nc(Nc3cc(Cl)c(O)c(Cl)c3)ncc2F)cc1Cl [Compound 548]
IC50 [2]: < 10 µM
IC50 [3]: < 10 µM

SMILES: COc1cc(Nc2ncc(F)c(Nc3cc(C)cc(C)c3)n2)cc(OC)c1OC [Compound 553]
IC50 [3]: < 10 µM

SMILES: Cc1cc(C)cc(Nc2nc(Nc3cc(C)c(O)c(Cl)c3)ncc2F)c1 [Compound 554]
IC50 [3]: < 10 µM

SMILES: Cc1cc(C)cc(Nc2nc(Nc3cc(Cl)cc(Cl)c3)ncc2F)c1 [Compound 556]
IC50 [2]: < 10 µM
IC50 [3]: < 10 µM

SMILES: CNC(=O)c1cc2cccc(Nc3ncc(F)c(Nc4cc(C)cc(C)c4)n3)c2[nH]1 [Compound 557, N4-(3,5-Dimethylphenyl)-5-fluoro-N2-[2-(N-methylamino)carbonylindol-7-yl]-2,4-pyrimidinediamine]
IC50 [3]: > 10 µM

SMILES: CNC(=O)c1cc2cccc(Nc3ncc(F)c(Nc4cc(OC)cc(C(F)(F)F)c4)n3)c2[nH]1 [Compound 558, 5-Fluoro-N4-(3-methoxy-5-trifluoromethylphenyl)-N2-[2-(N-methylamino)carbonylindol-7-yl]-2,4-pyrimidinediamine]
IC50 [2]: < 10 µM

SMILES: Cc1cc(C)cc(Nc2nc(Nc3cc(Cl)c(O)c(Cl)c3)ncc2F)c1 [Compound 559]
IC50 [2]: < 10 µM
IC50 [3]: < 10 µM

SMILES: Cc1cc(C)cc(Nc2nc(Nc3cc(C)c(Cl)c(C)c3)ncc2F)c1 [Compound 560]
IC50 [2]: > 10 µM

SMILES: Oc1c(Cl)cc(Nc2ncc(F)c(Nc3ccc4c(c3)OC(F)(F)O4)n2)cc1Cl [Compound 564]
IC50 (low cell density, 8 pt, read-out: LD Tryptase, CHMC, IgE, 8 pt): < 10 µM

SMILES: Fc1cnc(Nc2cc(Cl)cc(Cl)c2)nc1Nc1ccc2c(c1)OC(F)(F)O2 [Compound 565]
IC50 [4]: < 10 µM

SMILES: Cc1cc(Nc2ncc(F)c(Nc3ccc4c(c3)OC(F)(F)O4)n2)cc(C)c1Cl [Compound 566]
IC50 [4]: > 10 µM

SMILES: COc1cc(Nc2ncc(F)c(Nc3ccc4c(c3)OC(F)(F)O4)n2)cc(C(F)(F)F)c1 [Compound 568]
IC50 [4]: > 10 µM

SMILES: Cc1cc(Nc2ncc(F)c(Nc3ccc4c(c3)OC(F)(F)O4)n2)cc(C(F)(F)F)c1 [Compound 569]
IC50 [4]: < 10 µM

SMILES: CNC(=O)COc1c(C)cc(Nc2ncc(F)c(Nc3ccc4c(c3)OCCO4)n2)cc1C [Compound 572, N2-[3,5-dimethyl-4-(N-methylamino)carbonylmethyleneoxyphenyl]-N4-(3,4-ethylenedioxyphenyl)-5-fluoro-2,4-pyrimidinediamine]
IC50 [4]: < 10 µM
IC50 [5]: < 10 µM

SMILES: CNC(=O)COc1c(C)cc(Nc2ncc(F)c(Nc3ccc4c(c3)NC(=O)C(C)(C)O4)n2)cc1C [Compound 574, N2-[3,5-dimethyl-4-(N-methylamino)carbonylmethyleneoxyphenyl]-N4-(2,2-dimethyl-3-oxo-4H-benz[1,4]oxazin-6-yl)-5-fluoro-2,4-pyrimidinediamine]
IC50 [4]: < 10 µM
IC50 [5]: < 10 µM

SMILES: COc1cc(Nc2nc(Nc3cccc(-c4ncco4)c3)ncc2F)cc(OC)c1OC [Compound 667]
IC50 (Homo sapiens, Mast cell, low cell density CHMC, tryptase release, 3 point, read-out: LD Tryptase, CHMC, IgE, 3 pt): < 10 µM

SMILES: COc1ccc(Nc2ncc(F)c(Nc3ccc4c(c3)OCCO4)n2)c(OC)c1OC [Compound 668, N4-(3,4-Ethylenedioxyphenyl)-5-fluoro-N2-(2,3,4-trimethoxyphenyl)-2,4-pyrimidinediamine]
IC50 [6]: < 10 µM

SMILES: COc1cc(Nc2nc(Nc3ccc(OC)c(OC)c3OC)ncc2F)ccc1Cl [Compound 670]
IC50 [6]: > 10 µM

SMILES: COc1ccc(Nc2ncc(F)c(Nc3ccc(OC(F)(F)F)c(Cl)c3)n2)c(OC)c1OC [Compound 671]
IC50 [6]: < 10 µM

SMILES: COc1ccc(Nc2ncc(F)c(Nc3ccc4c(c3)NC(=O)C(C)(C)O4)n2)c(OC)c1OC [Compound 672]
IC50 [6]: < 10 µM
